Converted amounts (≈) assume the structure as drawn. Some results are limits rather than exact numbers.

The values below come from patent publication US4101556A, “Total synthesis of 2,5-dideoxystreptamines” (Bristol-Myers Company, priority 1977, dated 1978).

Test [1] deals with P. aerug. 20601. The experiment in a line: Minimum Inhibitory Concentration against P. aerug. 20601. Format: cell-based. The settings on record: Mueller-Hinton Broth, 10^-4 organism dilution, read-out: M.I.C. (Minimum Inhibitory Concentration). The text has this: (§1) Minimum Inhibitory Concentration Of
(§2) 5-deoxykanamycin A Against Various
(§3) Microorganisms (mcg./ml.)
(§4) ^a = 45% Antibiotic Assay Broth, 50% Mueller-Hinton Broth and 5%
(§5) serum. All others are Mueller-Hinton Broth.
(§6) ^b = 10^-3 Organism dilution. All others are 10^-4 organism

The test system of test [2] is S. pneum. 9585. The experiment in a line: Minimum Inhibitory Concentration against S. pneum. 9585. The conditions noted are these: Mueller-Hinton Broth, 10^-4 organism dilution, read-out: M.I.C. (Minimum Inhibitory Concentration). In kind it is cell-based.
Source text: as §1, §2, §3, §4, §5, §6

The test system of test [3] is E. coli 20683. The experiment in a line: Minimum Inhibitory Concentration against E. coli 20683. In kind it is cell-based. The conditions noted are these: Escherichia coli, Mueller-Hinton Broth, 10^-3 organism dilution, read-out: M.I.C. (Minimum Inhibitory Concentration).
Source text: as §1, §2, §3, §4, §5, §6

Test [4] concerns S. marc. 20460. As to the kind of experiment: Minimum Inhibitory Concentration against S. marc. 20460. Format: cell-based. The conditions noted are these: Mueller-Hinton Broth, 10^-4 organism dilution, read-out: M.I.C. (Minimum Inhibitory Concentration).
Source text: as §1, §2, §3, §4, §5, §6

Test [5] relates to S. aureus 9606. The experiment in a line: Minimum Inhibitory Concentration against S. aureus 9606. In kind it is cell-based. The conditions noted are these: Staphylococcus aureus, Mueller-Hinton Broth, 10^-4 organism dilution, read-out: M.I.C. (Minimum Inhibitory Concentration).
Source text: as §1, §2, §3, §4, §5, §6

The test system of test [6] is P. stuartii 20894. As to the kind of experiment: Minimum Inhibitory Concentration against P. stuartii 20894. The conditions noted are these: Providencia stuartii, Mueller-Hinton Broth, 10^-3 organism dilution, read-out: M.I.C. (Minimum Inhibitory Concentration). In kind it is cell-based.
Source text: as §1, §2, §3, §4, §5, §6

Test [7] deals with P. stuartii 21210. The experiment in a line: Minimum Inhibitory Concentration against P. stuartii 21210. In kind it is cell-based. The conditions noted are these: Providencia stuartii, Mueller-Hinton Broth, 10^-4 organism dilution, read-out: M.I.C. (Minimum Inhibitory Concentration).
Source text: as §1, §2, §3, §4, §5, §6

Test [8] has as its system S. pyogenes 9604. As to the kind of experiment: Minimum Inhibitory Concentration against S. pyogenes 9604. Format: cell-based. The conditions noted are these: Streptococcus pyogenes, 45% Antibiotic Assay Broth, 50% Mueller-Hinton Broth and 5% serum, 10^-3 organism dilution, read-out: M.I.C. (Minimum Inhibitory Concentration).
Source text: as §1, §2, §3, §4, §5, §6

For test [9], the system named is E. cloacae 9656. The experiment in a line: Minimum Inhibitory Concentration against E. cloacae 9656. Format: cell-based. The conditions noted are these: Enterobacter cloacae, Mueller-Hinton Broth, 10^-4 organism dilution, read-out: M.I.C. (Minimum Inhibitory Concentration).
Source text: as §1, §2, §3, §4, §5, §6

Test [10] relates to E. coli 20732. As to the kind of experiment: Minimum Inhibitory Concentration against E. coli 20732. Format: cell-based. The conditions noted are these: Escherichia coli, Mueller-Hinton Broth, 10^-3 organism dilution, read-out: M.I.C. (Minimum Inhibitory Concentration).
Source text: as §1, §2, §3, §4, §5, §6

Test [11] concerns S. aureus 9537. As to the kind of experiment: Minimum Inhibitory Concentration against S. aureus 9537. Format: cell-based. The conditions noted are these: Staphylococcus aureus, Mueller-Hinton Broth, 10^-4 organism dilution, read-out: M.I.C. (Minimum Inhibitory Concentration).
Source text: as §1, §2, §3, §4, §5, §6

Test [12] deals with S. aureus 20240. As to the kind of experiment: Minimum Inhibitory Concentration against S. aureus 20240. Format: cell-based. The conditions noted are these: Staphylococcus aureus, Mueller-Hinton Broth, 10^-4 organism dilution, read-out: M.I.C. (Minimum Inhibitory Concentration).
Source text: as §1, §2, §3, §4, §5, §6

For test [13], the system named is P. rettgeri 9637. The experiment in a line: Minimum Inhibitory Concentration against P. rettgeri 9637. The conditions noted are these: Providencia rettgeri, Mueller-Hinton Broth, 10^-4 organism dilution, read-out: M.I.C. (Minimum Inhibitory Concentration). Format: cell-based.
Source text: as §1, §2, §3, §4, §5, §6

Test [14] deals with P. aerug. 20717. The experiment in a line: Minimum Inhibitory Concentration against P. aerug. 20717. The settings on record: Mueller-Hinton Broth, 10^-4 organism dilution, read-out: M.I.C. (Minimum Inhibitory Concentration). In kind it is cell-based.
Source text: as §1, §2, §3, §4, §5, §6

Test [15] concerns E. cloacae 20364. As to the kind of experiment: Minimum Inhibitory Concentration against E. cloacae 20364. Format: cell-based. The settings on record: Enterobacter cloacae, Mueller-Hinton Broth, 10^-3 organism dilution, read-out: M.I.C. (Minimum Inhibitory Concentration).
Source text: as §1, §2, §3, §4, §5, §6

In test [16] the test system is E. coli 20895. The experiment in a line: Minimum Inhibitory Concentration against E. coli 20895. In kind it is cell-based. The settings on record: Escherichia coli, Mueller-Hinton Broth, 10^-3 organism dilution, read-out: M.I.C. (Minimum Inhibitory Concentration).
Source text: as §1, §2, §3, §4, §5, §6

The test system of test [17] is P. aerug. 21509. The experiment in a line: Minimum Inhibitory Concentration against P. aerug. 21509. In kind it is cell-based. The settings on record: Mueller-Hinton Broth, 10^-4 organism dilution, read-out: M.I.C. (Minimum Inhibitory Concentration).
Source text: as §1, §2, §3, §4, §5, §6

Test [18] deals with K. pneum. 9977. As to the kind of experiment: Minimum Inhibitory Concentration against K. pneum. 9977. In kind it is cell-based. The conditions noted are these: Mueller-Hinton Broth, 10^-4 organism dilution, read-out: M.I.C. (Minimum Inhibitory Concentration).
Source text: as §1, §2, §3, §4, §5, §6

Test [19] deals with P. aerug. 20741. The experiment in a line: Minimum Inhibitory Concentration against P. aerug. 20741. In kind it is cell-based. The conditions noted are these: Mueller-Hinton Broth, 10^-4 organism dilution, read-out: M.I.C. (Minimum Inhibitory Concentration).
Source text: as §1, §2, §3, §4, §5, §6

The subject of test [20] is P. rettgeri 21207. As to the kind of experiment: Minimum Inhibitory Concentration against P. rettgeri 21207. In kind it is cell-based. The conditions noted are these: Providencia rettgeri, Mueller-Hinton Broth, 10^-3 organism dilution, read-out: M.I.C. (Minimum Inhibitory Concentration).
Source text: as §1, §2, §3, §4, §5, §6

For test [21], the system named is P. aerug. 20653. As to the kind of experiment: Minimum Inhibitory Concentration against P. aerug. 20653. Format: cell-based. The conditions noted are these: Mueller-Hinton Broth, 10^-4 organism dilution, read-out: M.I.C. (Minimum Inhibitory Concentration).
Source text: as §1, §2, §3, §4, §5, §6

Test [22] concerns E. cloacae 21006. As to the kind of experiment: Minimum Inhibitory Concentration against E. cloacae 21006. In kind it is cell-based. The conditions noted are these: Enterobacter cloacae, Mueller-Hinton Broth, 10^-3 organism dilution, read-out: M.I.C. (Minimum Inhibitory Concentration).
Source text: as §1, §2, §3, §4, §5, §6

Test [23] concerns P. aerug. 9843A. As to the kind of experiment: Minimum Inhibitory Concentration against P. aerug. 9843A. The conditions noted are these: Mueller-Hinton Broth, 10^-4 organism dilution, read-out: M.I.C. (Minimum Inhibitory Concentration). In kind it is cell-based.
Source text: as §1, §2, §3, §4, §5, §6

Test [24] deals with E. coli 20665. As to the kind of experiment: Minimum Inhibitory Concentration against E. coli 20665. Format: cell-based. The conditions noted are these: Escherichia coli, Mueller-Hinton Broth, 10^-3 organism dilution, read-out: M.I.C. (Minimum Inhibitory Concentration).
Source text: as §1, §2, §3, §4, §5, §6

Test [25] deals with E. coli 21218. As to the kind of experiment: Minimum Inhibitory Concentration against E. coli 21218. Format: cell-based. The settings on record: Escherichia coli, Mueller-Hinton Broth, 10^-3 organism dilution, read-out: M.I.C. (Minimum Inhibitory Concentration).
Source text: as §1, §2, §3, §4, §5, §6

Test [26] deals with P. mirab. 9900. As to the kind of experiment: Minimum Inhibitory Concentration against P. mirab. 9900. In kind it is cell-based. The conditions noted are these: Mueller-Hinton Broth, 10^-4 organism dilution, read-out: M.I.C. (Minimum Inhibitory Concentration).
Source text: as §1, §2, §3, §4, §5, §6

Test [27] relates to E. coli 9632. As to the kind of experiment: Minimum Inhibitory Concentration against E. coli 9632. Format: cell-based. The conditions noted are these: Escherichia coli, Mueller-Hinton Broth, 10^-3 organism dilution, read-out: M.I.C. (Minimum Inhibitory Concentration).
Source text: as §1, §2, §3, §4, §5, §6

For test [28], the system named is S. marc. 20019. As to the kind of experiment: Minimum Inhibitory Concentration against S. marc. 20019. The settings on record: Mueller-Hinton Broth, 10^-4 organism dilution, read-out: M.I.C. (Minimum Inhibitory Concentration). Format: cell-based.
Source text: as §1, §2, §3, §4, §5, §6

For test [29] the following is noted: background statement on positional isomers; cited from earlier work.

For `NC[C@H]1O[C@H](O[C@H]2C[C@@H](O[C@H]3O[C@H](CO)[C@@H](O)[C@H](N)[C@H]3O)[C@H](N)C[C@@H]2N)[C@H](O)[C@@H](O)[C@@H]1O` [5-deoxykanamycin A, 5-Deoxykanamycin A], the MIC was above 125 µg/mL in [1]; 125 µg/mL (≈ 267 µM) in test [2]; above 125 µg/mL in test [3]; above 125 µg/mL in [4]; 4 µg/mL (≈ 8.54 µM) in test [5]; 32 µg/mL (≈ 68.3 µM) in [6]. For the same molecule, the MIC in [7] was 4 µg/mL (≈ 8.54 µM); in [8], 125 µg/mL (≈ 267 µM); in test [9], 8 µg/mL (≈ 17.1 µM); in test [10], 125 µg/mL (≈ 267 µM); in test [11], 2 µg/mL (≈ 4.27 µM); in test [12] it was above 125 µg/mL. In addition, the MIC in test [13] is 1 µg/mL (≈ 2.13 µM); in test [14], above 125 µg/mL; in test [15], above 125 µg/mL; in [16] it was 8 µg/mL (≈ 17.1 µM); in [17] it was above 125 µg/mL; in [18], 1 µg/mL (≈ 2.13 µM). Also, the MIC is above 125 µg/mL in test [19]; 16 µg/mL (≈ 34.2 µM) in [20]; above 125 µg/mL in test [21]; above 125 µg/mL in [22]; above 125 µg/mL in [23]; above 125 µg/mL in [24]. Also, the MIC in test [25] was above 125 µg/mL; in [26] it was 32 µg/mL (≈ 68.3 µM); in test [27], 8 µg/mL (≈ 17.1 µM); in test [28], 32 µg/mL (≈ 68.3 µM).
In the case of `NC[C@H]1O[C@H](O[C@H]2[C@H](O)[C@@H](O)[C@H](N)C[C@@H]2N)[C@H](N)[C@@H](O)[C@@H]1O` [neamine, 4-0-(2,6-dideoxy-2,6-diamino-α-D-glycopynanosyl) 2-deoxystreptamine], the antibiotic activity result in [29] was “biologically active”.
